Results from patent publication EP0994871B1, “NOVEL SUBSTITUTED NAPHTHOPYRANS” (TRANSITIONS OPTICAL, INC., priority 1997, dated 1998).

Experiments:
[1] = Photochromic response of polymeric test squares on an optical bench; assay type: physicochemical; conditions: for ΔOD@ SATURATION: UV exposure continued for 20 minutes; for ΔOD@ SATURATION / ΔOD/MIN SENSITIVITY: test squares, 75°F (23.9°C); for ΔOD/MIN SENSITIVITY: measured over the first five (5) seconds of UV exposure, expressed on a per minute basis; for Bleach (T1/2): time for absorbance of the activated form in the test squares to reach one half the highest absorbance at room temperature (75°F, 23.9°C) after removal of activating light
Procedure: Testing was done with the photochromic naphthopyrans of the Examples incorporated into polymeric samples by the following method. The quantity of naphthopyran calculated to yield a 1.5 times 10^-3 molal solution was added to a flask containing 50 grams of a monomer blend of 4 parts ethoxylated bisphenol A dimethacrylate (BPA 2EO DMA), 1 part poly(ethylene glycol) 600 dimethacrylate, and 0.033 weight percent 2,2'-azobis(2-methyl propionitrile) (AIBN). The naphthopyran was dissolved into the monomer blend by stirring and gentle heating, if necessary. After a clear solution was obtained, it was poured into a flat sheet mold having the interior dimensions of 2.2 mm x 6 inches (15.24 cm) x 6 inches (15.24 cm). The mold was sealed and placed in a horizontal air flow, programmable oven set to increase the temperature from 40°C. to 95°C. over a 5 hour interval, hold the temperature at 95°C. for 3 hours and then lower it to 60°C. for at least 2 hours before the end of the curing cycle. After the mold was opened, the polymer sheet was cut using a diamond blade saw into 2 inch (5.1 centimeters) test squares.
The photochromic test squares prepared in Part A were tested for photochromic response rates on an optical bench. Prior to testing on the optical bench, the photochromic test squares were exposed to 365 nanometer ultraviolet light for about 15 minutes to activate the photochromic compounds and then placed into a 76°C oven for about 15 minutes to bleach or inactivate the photochromic compounds. The test squares were then cooled to room temperature, exposed to fluorescent room lighting for at least 2 hours and then kept covered for at least 2 hours prior to testing on an optical bench maintained at 75°F (23.9°C). The bench was fitted with a 150 watt Xenon arc lamp, a remote controlled shutter, a copper sulfate bath acting as a heat sink for the arc lamp, a Schott WG-320 nm cut-off filter which removes short wavelength radiation; neutral density filter(s) and a sample holder in which the square to be tested was inserted. A collimated beam of light from a tungsten lamp was passed through the square at a small angle normal to the square. After passing through the square, the light from the tungsten lamp was directed through a photopic filter attached to a detector. The photopic filter passes wavelengths such that the detector mimics the response of the human eye. The output signals from the detector(s) were processed by a radiometer.
Change in optical density (ΔOD) was determined by inserting a test square in the bleached state into the sample holder, adjusting the transmittance scale to 100%, opening the shutter from the Xenon lamp to provide ultraviolet radiation to change the test square from the bleached state to an activated (i.e., darkened) state, measuring the transmittance in the activated state, and calculating the change in optical density according to the formula A OD=log(100/%Ta) where %Ta is the percent transmittance in the activated state and the logarithm is to the base 10.
(§1) The Δ OD/Min, which represents the sensitivity of the photochromic compound's response to UV light, was measured over the first five (5) seconds of UV exposure, then expressed on a per minute basis. The saturation optical density (OD) was taken under identical conditions as the A OD/Min, except UV exposure was continued for 20 minutes for the examples in Table 1. The lambda max reported in Table 1 is the wavelength in the visible spectrum at which the maximum absorption of the activated (colored) form of the photochromic compound in a diethylene glycol bis(allyl carbonate) composition occurs. The Bleach Rate (T 1/2) is the time interval in seconds for the absorbance of the activated form of the naphthopyran in the test squares to reach one half the highest absorbance at room temperature (75°F, 23.9°C) after removal of the source of activating light.

[2] = Lambda max of the activated (colored) form in a diethylene glycol bis(allyl carbonate) composition; assay type: physicochemical; conditions: wavelength in the visible spectrum of maximum absorption of the activated (colored) form in a diethylene glycol bis(allyl carbonate) composition
Procedure: as §1

| Compound | ΔOD@ SATURATION [1] | ΔOD/MIN SENSITIVITY [1] | Bleach (T1/2) [1] | LAMBDA MAX (VISIBLE) [2] |
| --- | --- | --- | --- | --- |
| COc1ccc(C2(c3ccc(OC)cc3)C=Cc3c(-c4cccn4C)c(OC(C)=O)c4ccccc4c3O2)cc1 [Example 1, 2,2-bis(4-methoxyphenyl)-5-(N-methylpyrrol-2-yl)-6-acetoxy-2H-naphtho[1,2-b]pyran] | 0.25 | 0.16 | 1.23 min | 513 nm |
| COc1ccc(C2(c3ccc(OC)cc3)C=Cc3c(-c4ccc(OC)cc4OC)c(OC(C)=O)c4ccccc4c3O2)cc1 [Example 2, 2,2-bis(4-methoxyphenyl)-5-(2,4-dimethoxyphenyl)-6-acetoxy-2H-naphtho[1,2-b]pyran] | 0.55 | 0.15 | 4.13 min | 511 nm |
| COc1ccc(C2(c3ccc(OC)cc3)C=Cc3c(Sc4ccccc4)c(O)c4ccccc4c3O2)cc1 [Example 3, 2,2-bis(4-methoxyphenyl)-5-phenylthio-6-hydroxy-2H-naphtho[1,2-b]pyran] | 1.76 | 0.34 | >10 min | 516 nm |
| COc1ccc(C2(c3ccc(OC)cc3)C=Cc3c(Sc4ccccc4)c(OC(C)=O)c4ccccc4c3O2)cc1 [Example 4, 2,2-bis(4-methoxyphenyl)-5-phenylthio-6-acetoxy-2H-naphtho[1,2-b]pyran] | 0.23 | 0.22 | 0.7 min | 516 nm |
| COc1ccc(C2(c3ccc(OC)cc3)C=Cc3c(Cl)c(OC(C)=O)c4ccccc4c3O2)cc1 [Example 5, 2,2-bis(4-methoxyphenyl)-5-chloro-6-acetoxy-2H-naphtho[1,2-b]pyran] | 0.07 | 0.08 | 0.9 min | 462 nm |
| COc1ccc(C2(c3ccc(OC)cc3)C=Cc3c(C)c(OC(C)=O)c4ccccc4c3O2)cc1 [Example 6, 2,2-bis(4-methoxyphenyl)-5-methyl-6-acetoxy-2H-naphtho[1,2-b]pyran] | 0.37 | 0.14 | 2 min | 506 nm |
| Oc1c(Sc2ccccc2)c2c(c3ccccc13)OC1(C=C2)C2CC3CC(C2)CC1C3 (stereo not drawn) [Example 7, 2,2'-spiroadamantylene-5-phenylthio-6-hydroxy-2H-naphtho[1,2-b]pyran] | 0.47 | 0.15 | – | 462 nm |
| CC(=O)Oc1c(Sc2ccccc2)c2c(c3ccccc13)OC1(C=C2)C2CC3CC(C2)CC1C3 (stereo not drawn) [Example 8, 2,2'-spiroadamantylene-5-phenylthio-6-acetoxy-2H-naphtho[1,2-b]pyran] | 0.04 | 0.10 | – | 459 nm |
| COc1c(C)c2c(c3ccccc13)OC1(C=C2)C2CC3CC(C2)CC1C3 (stereo not drawn) [Example 9, 2,2'-spiroadamantylene-5-methyl-6-methoxy-2H-naphtho[1,2-b]pyran] | 0.17 | 0.12 | – | 462 nm |
| COc1ccc(C2(c3ccc(OC)cc3)C=Cc3c(C(O)(c4ccccc4)c4ccccc4)c(O)c4ccccc4c3O2)cc1 [Example 10, 2,2-bis(4-methoxyphenyl)-5-diphenylmethylol-6-hydroxy-2H-naphtho[1,2-b]pyran] | 0.32 | 0.05 | – | 482 nm |
